The supplement of paper PMC10307832

Legend:
Test in all cases: relative viability (nuclei count vs DMSO), 5 days (fraction); higher = more cells survive
[1] = compound: CC(C)C[C@@H](C(=O)N[C@H](C(=O)OC1CCCC1)c1ccccc1)[C@H](O)C(=O)NO [Tosedostat] + N=C(N)NC(=N)NCCc1ccccc1 [Phenformin] (partner 250 µM)
How it was run: (§1)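 Relative viability is defined as nuclei in treated wells over nuclei in vehicle wells. Duplicate plates were run and medians reported. Lung cancer cell lines in 1536-well plates were dosed by pin tool one day after seeding, with one drug or with a fixed anchor-drug dose plus five library-drug doses (not always all listed) in √10 steps, and nuclei were counted after 5 days.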

[2] = compound: CC(C)C[C@@H](C(=O)N[C@H](C(=O)OC1CCCC1)c1ccccc1)[C@H](O)C(=O)NO [Tosedostat] + CC(=O)Nc1cccc(-n2c(=O)n(C3CC3)c(=O)c3c(Nc4ccc(I)cc4F)n(C)c(=O)c(C)c32)c1 [Trametinib] (partner 0.02 µM)
How it was run: as §1

[3] = compound: CC1=NN=C(O1)C2=NN=C(C=C2)N3CCC(CC3)OC4=C(C=CC(=C4)F)Cl + CC1(C)CCC(c2ccc(Cl)cc2)=C(CN2CCN(c3ccc(C(=O)NS(=O)(=O)c4ccc(N[C@H](CCN5CCOCC5)CSc5ccccc5)c(S(=O)(=O)C(F)(F)F)c4)cc3)CC2)C1 [Navitoclax] (partner 0.5 µM)
How it was run: as §1

[4] = compound: CC(C)C[C@@H](C(=O)N[C@H](C(=O)OC1CCCC1)c1ccccc1)[C@H](O)C(=O)NO [Tosedostat] + Nc1ncn([C@H]2C[C@H](O)[C@@H](CO)O2)c(=O)n1 [Decitabine] (partner 2 µM)
How it was run: as §1

Cell Line | relative viability ([1]; first compound 0.02 µM) | relative viability ([1]; first compound 0.06325 µM) | relative viability ([1]; first compound 0.2 µM) | relative viability ([1]; first compound 0.6325 µM) | relative viability ([1]; first compound 2 µM) | relative viability ([2]; first compound 0.02 µM) | relative viability ([2]; first compound 0.06325 µM) | relative viability ([2]; first compound 0.2 µM) | relative viability ([2]; first compound 0.6325 µM) | relative viability ([2]; first compound 2 µM) | relative viability ([3]; first compound 0.253 µM) | relative viability ([3]; first compound 0.8 µM) | relative viability ([3]; first compound 2.53 µM) | relative viability ([3]; first compound 8 µM) | relative viability ([4]; first compound 0.02 µM) | relative viability ([4]; first compound 0.06325 µM) | relative viability ([4]; first compound 0.2 µM) | relative viability ([4]; first compound 0.6325 µM) | relative viability ([4]; first compound 2 µM)
CAL-12T | 0.639 | 0.552 | 0.508 | 0.446 | 0.371 | 0.393 | 0.364 | 0.339 | 0.394 | 0.325 | 1 | 1.09 | 0.834 | 1 |  |  |  |  | 
NCI-H1650 | 0.484 | 0.501 | 0.399 | 0.399 | 0.281 | 0.79 | 0.627 | 0.552 | 0.533 | 0.479 |  | 0.895 | 0.816 | 0.868 | 0.43 | 0.413 | 0.433 | 0.318 | 0.237
NCI-H1703 |  |  |  |  |  |  |  |  |  |  | 0.9 | 0.987 | 0.783 | 0.71 |  |  |  |  | 
BEN | 0.263 | 0.251 | 0.269 | 0.253 | 0.273 | 1.17 | 1 | 1.09 | 1.21 | 1.38 | 0.0638 | 0.0498 | 0.058 | 0.141 | 0.79 | 0.761 | 0.676 | 0.734 | 0.665
EMC-BAC-2 | 0.495 | 0.508 | 0.552 | 0.473 | 0.442 | 0.942 | 0.849 | 0.83 | 0.727 | 0.675 | 0.998 | 0.909 | 1.03 | 0.936 | 1.04 | 0.964 | 0.971 | 0.877 | 0.865
LXF-289 | 0.495 | 0.493 | 0.479 | 0.495 | 0.399 | 0.744 | 0.651 | 0.661 | 0.703 | 0.687 | 0.714 | 0.7 | 0.673 | 0.618 | 0.409 | 0.392 | 0.365 | 0.387 | 0.328
ABC-1 | 0.201 | 0.201 | 0.247 | 0.23 | 0.206 |  |  |  |  |  |  |  |  |  | 1.17 | 1.13 | 1.27 | 1.19 | 1.05
EBC-1 |  |  |  |  |  |  |  |  |  |  | 0.352 | 0.375 | 0.26 | 0.276 |  |  |  |  | 
NCI-H2342 | 0.513 | 0.733 | 0.558 | 0.494 | 0.442 | 0.808 | 0.797 | 0.93 | 0.903 | 0.919 |  |  |  |  | 0.713 | 0.688 | 0.718 | 0.692 | 0.689
